Broadly, the LD50 is the dose at which mortality reaches 50%.

11 molecules from US4851414A, “Anti-dementia agent” (Kyowa Hakko Kagyo Co., Ltd., priority 1987, dated 1989) can be followed below.

Data set [1] in a line: Activity on Electroconvulsive Shock-induced Amnesia (step-through passive avoidance, light-and-dark box). The data set is classed as in vivo, mouse (dd strain, male). The settings on record: for reaction latent time: Tables 2-2, 2-3 and 2-4, oral. The protocol:
The antiamnestic activity was measured by using the light-and-dark box method. Symbols of the test compounds correspond to said compounds (Table 1).
As the test animals, 14 to 15 dd strain male mice (body weight: 23-28 g) were used for each group. As the experimental device, a step-through type passive avoidance training box composed of a light room and a dark room (light room: 130×90×90 mm; dark room 180×90×90 mm) was used.
In the acquisition trial where learning takes place, mice put in the light room move to the dark room. Each time the mice entered the dark room, electric stimulation of 0.25 mA was given to four limbs of each mouse for 2 seconds from grids on the floor.
Amnesia-inducing treatment was performed by electroconvulsive shock (2,000 V, 25 mA, 0.2 seconds) immediately after completion of the acquisition trial. After 24 hours, the test trial was conducted to measure the length of time before the mice entered the dark room. This time period, termed the reaction latent time, was recorded. A reaction latent time longer than 600 seconds was recorded as 600 seconds.
A test compound was suspended in 0.3% sodium carboxymethyl cellulose (hereinafter referred to as "CMC"). That suspension and a control of 0.3% CMC without any test compound were respectively administered to the mice 60 minutes prior to each test trial.
The effect was evaluated by Student-t test to determine whether there was a significant difference in reaction latent time between the amnesia control group and the group administered with the test compound in the passive avoidance test trial.

Data set [2] can be described thus: Acute Toxicity, mice. The settings on record: in vivo; oral, mouse (male). The protocol:
(§1) Acute toxicity test was carried out by orally administering Compound (I) used in the present invention to mice (male) and rats (male).

Data set [3] is described as follows: Acute Toxicity, rats. The settings on record: in vivo; oral, rat (male). As for the experimental part:
as §1

Data set [4] can be described thus: Activity on Scopolamine-induced Amnesia (step-through passive avoidance). The data set is classed as in vivo, rat (Wistar strain, male). The settings on record: for Number of Rats that Reached Standard Point / Number of Rats Tested: standard point 600 seconds. The source says:
As the experimental device, a step-through type passive avoidance training box composed of a light room and a dark room (light room: 400×400×400 mm; dark room 200×150×200 mm) was used. In the acquisition trial where learning is made, rats put in the light room move to the dark room. Each time the rats entered the dark room, electric stimulation of 2 mA was given to four limbs of each rat for 3 seconds from grids on the floor.

The nature of data set [5]: Activity on Amnesia due to Damage of Basal Forebrain (kainic acid lesion, passive avoidance). The data set is classed as in vivo, rat (Wistar strain, male). The settings on record: for Number of Rats that Reached Standard Point / Number of Rats Tested: standard point 600 seconds. As for the experimental part:
As the test animals, 13 to 39 Wistar strain male rats (body weight: 250-300 g) were used for each group. Amnesia-inducing treatment was effected by damaging the basal forebrain through injection of 0.2 μg/μl kainic acid at the basal forebrain from both sides under anesthesia with pentobarbital-Na.
After the recovery period of about 10 days following the operation, the trial for acquiring learning (training) was performed in a similar manner using the same experimental device as in Experiment 2. After 24 hours, the test trial was carried out.
Measurement of the latent time was carried out in a similar manner as in Experiment 1. Test Compound B and idebenone were suspended in 0.3% CMC, and the suspension was administered twice 60 minutes prior to the training and 60 minutes prior to the test.
Alternatively, the suspension was administered for 9 consecutive days after the recovery period. In this case, Compound B was orally administered and idebenone was intraperiotoneally administered; and the training was conducted on day 8 and the test trial was conducted on day 9. […]

Where [6] appears, read: 2.5 mg/kg, administered for 9 days, oral.
Where [7] appears, read: 10 mg/kg, administered for 9 days, oral.
The mark [8] stands for this setting: idebenone intraperitoneal, imipramine oral.
Where [9] appears, read: 2.5 mg/kg, administered for 9 days, intraperitoneal.
Setting [10] is: 10 mg/kg, administered for 9 days, intraperitoneal.

With `CN(C)CCC=C1c2ccccc2CCc2ccccc21` [Amitriptyline, amitriptyline, reference compound], the “ataxis in motor coordination, order of intensity” value (shortened to “ataxis in motor coordination”) in data set [1] (mouse, in vivo, po) is “amitriptyline>desipramine>imipramine”.

With `CC(=O)Nc1ccc(Cc2ccccn2)c([N+](=O)[O-])c1` [Compound A, α-(p-Acetylamino-o-nitrobenzyl)pyridine], the “reaction latent time” value in data set [1] is on record as “prolonged”. The results for the 50% lethal dose (LD50) in data set [2] and in data set [3] were 660 mg/kg and greater than 200 mg/kg, respectively.

For `CCCC(=O)Nc1ccc(Cc2ccccn2)c([N+](=O)[O-])c1` [Compound B, α-(p-Butyrylamino-o-nitrobenzyl)pyridine], in data set [1] (doses of 10, 40, 80 and 160 mg/kg, oral), the “reaction latent time compared with the amnestic control group” value is listed as “significantly prolonged”. The “Test Trial Mean Reaction Latent Time” value in data set [4] (2.5 mg/kg, oral) turned out to be 94.3 ± 30.3 s; in data set [4] (5 mg/kg, oral) it was 148.9 ± 54.3 s; in data set [4] (10 mg/kg, oral), 201.2 ± 55.5 s; in data set [4] (20 mg/kg, oral), 172.4 ± 52.6 s; in data set [4] (40 mg/kg, oral), 171.2 ± 52.5 s; in data set [5] (setting [6]), 243.2 ± 73.7 s. Moreover, the “Test Trial Mean Reaction Latent Time” value in data set [5] (2.5 mg/kg, administered twice) was determined as 121.8 ± 36.5 s; in data set [5] (5 mg/kg, administered twice), 215.5 ± 60.0 s; in data set [5] (setting [7]) it was 259.0 ± 78.5 s; in data set [5] (10 mg/kg, administered twice), 191.2 ± 57.7 s; in data set [5] (20 mg/kg, administered twice), 209.2 ± 60.2 s; in data set [5] (40 mg/kg, administered twice), 163.0 ± 51.5 s. In addition, the “Number of Rats that Reached Standard Point / Number of Rats Tested” value is 1/20 in data set [4] (2.5 mg/kg, oral); 3/17 in data set [4] (5 mg/kg, oral); 4/20 in data set [4] (10 mg/kg, oral); 2/17 in data set [4] (20 mg/kg, oral); 4/20 in data set [4] (40 mg/kg, oral); 4/13 in data set [5] (setting [6]). Also, the “Number of Rats that Reached Standard Point / Number of Rats Tested” value in data set [5] (2.5 mg/kg, administered twice) was 1/19; in data set [5] (5 mg/kg, administered twice), 5/19; in data set [5] (setting [7]), 5/13; in data set [5] (10 mg/kg, administered twice), 3/18; in data set [5] (20 mg/kg, administered twice), 4/18; in data set [5] (40 mg/kg, administered twice), 2/18. Besides, the “antiamnestic activity” value in data set [4] (oral, dose of 5 to 40 mg/kg) was “showed an antiamnestic activity”. Besides, the “improving activity” value in data set [5] (9 consecutive days, 10 mg/kg, oral) is listed as “significant (P<0.05) improving activity”. For the same molecule, the “activity of alleviating learning disturbance” value in data set [5] (administered twice, 2.5 mg/kg or more) is given as “showed an activity of alleviating learning disturbance”. Further, the “improving activity in the learning-disturbed animal model” value in data set [5] (rat, in vivo) is on record as “apparent improving activity”. In addition, the LD50 in data set [2] was 1530 mg/kg; in data set [3] it was greater than 850 mg/kg.

For `CCCCC(=O)Nc1ccc(Cc2ccccn2)c([N+](=O)[O-])c1` [Compound C, α-(p-Valerylamino-o-nitrobenzyl)pyridine], the “reaction latent time” value in data set [1] was “prolonged”. Moreover, the 50% lethal dose (LD50) in data set [2] was greater than 300 mg/kg.

For `CCCCCC(=O)Nc1ccc(Cc2ccccn2)c([N+](=O)[O-])c1` [Compound D, α-(p-Hexanoylamino-o-nitrobenzyl)pyridine], the “reaction latent time” value in data set [1] is “prolonged”. The values for the LD50 in data set [2] and in data set [3] were greater than 1000 mg/kg and greater than 100 mg/kg, respectively.

As for `CCCCCCCC(=O)Nc1ccc(Cc2ccccn2)c([N+](=O)[O-])c1` [Compound E, α-(p-Octanoylamino-o-nitrobenzyl)pyridine], the median lethal dose (LD50) in data set [2] was greater than 1000 mg/kg; in data set [3], greater than 100 mg/kg.

For the molecule `CCCCCCCCCC(=O)Nc1ccc(Cc2ccccn2)c([N+](=O)[O-])c1` [Compound F, α-(p-Decanoylamino-o-nitrobenzyl)pyridine], the LD50 in data set [2] is greater than 1000 mg/kg; in data set [3], greater than 100 mg/kg.

Regarding `CCCCCCCCCCCCCC(=O)Nc1ccc(Cc2ccccn2)c([N+](=O)[O-])c1` [Compound G, α-(p-Myristylamino-o-nitrobenzyl)pyridine], in data set [1], the “reaction latent time” value is listed as “prolonged”. Also, the LD50 in data set [2] was greater than 1000 mg/kg; in data set [3], greater than 100 mg/kg.

`CNCCCN1c2ccccc2CCc2ccccc21` [Desipramine, desipramine, reference compound]: the “ataxis in motor coordination” value in data set [1] (Table 2-6, oral) is on record as “amitriptyline>desipramine>imipramine”.

In the case of `COC1=C(OC)C(=O)C(CCCCCCCCCCO)=C(C)C1=O` [Idebenone, idebenone, reference compound], the “Test Trial Mean Reaction Latent Time” value in data set [4] (2.5 mg/kg, intraperitoneal) worked out at 58.4 ± 19.7 s; in data set [4] (5 mg/kg, intraperitoneal) it was 110.6 ± 30.2 s; in data set [4] (10 mg/kg, intraperitoneal) it was 148.8 ± 60.2 s; in data set [5] (setting [9]) it was 382.8 ± 80.2 s; in data set [5] (setting [10]), 178.2 ± 68.2 s; in data set [5] (10 mg/kg, administered twice), 52.0 ± 22.1 s. In addition, the “Test Trial Mean Reaction Latent Time” value is 15.2 ± 3.4 s in data set [5] (20 mg/kg, administered twice) and 27.7 ± 8.9 s in data set [5] (40 mg/kg, administered twice). For the same molecule, the “Number of Rats that Reached Standard Point / Number of Rats Tested” value in data set [4] (2.5 mg/kg, intraperitoneal) is recorded as 0/10; in data set [4] (5 mg/kg, intraperitoneal), 0/10; in data set [4] (10 mg/kg, intraperitoneal), 0/10; in data set [5] (setting [9]) it was 7/13; in data set [5] (setting [10]), 3/13; in data set [5] (10 mg/kg, administered twice) it was 0/14. For the same molecule, the “Number of Rats that Reached Standard Point / Number of Rats Tested” value is on record as 0/14 in data set [5] (20 mg/kg, administered twice) and 0/14 in data set [5] (40 mg/kg, administered twice). Further, the “antiamnestic activity” value in data set [4] (setting [8]) was “showed no antiamnestic activity”. In addition, the “improving effect” value in data set [5] (9 consecutive days, 2.5 mg/kg, intraperitoneal) is “apparent improving effect”; in data set [5] (administered twice, 10 to 40 mg/kg), “showed no improving effect”.

On to `CN(C)CCCN1c2ccccc2CCc2ccccc21` [Imipramine, imipramine], for which the “ataxis in motor coordination” value in data set [1] (Table 2-6, oral) was “amitriptyline>desipramine>imipramine”. Also, in data set [4] (20 mg/kg, oral), the “Test Trial Mean Reaction Latent Time” value was 110.4 ± 44.3 s and the “Number of Rats that Reached Standard Point / Number of Rats Tested” value was 1/13. Moreover, in data set [4] (40 mg/kg, oral), the “Test Trial Mean Reaction Latent Time” value came to 186.6 ± 54.0 s and the “Number of Rats that Reached Standard Point / Number of Rats Tested” value is 1/13. For the same molecule, the “antiamnestic activity” value in data set [4] (setting [8]) is given as “showed no antiamnestic activity”.
